Data on 14 compounds can be found in US10392379B2, “Hepatitis B core protein modulators” (Assembly Biosciences, Inc., priority 2015, dated 2019).

One data set deals with HBV. Description: Viral load production in AD38 cells by quantitative PCR of the core sequence. Type of data set: cell-based. Conditions: Hepatitis B virus, 144 h, 10 μM compound, 6 days, supernatant qPCR, relative to DMSO control, read-out: AD38 Viral Load (%) (VL with cmpd/VL in DMSO control) at 10 μM. On the procedure:
(§1) AD38 cells were then re-suspended with 10 mL of Treatment Medium and counted. Wells of a collagen coated 96-well NUNC microtiter plate were seeded at 50,000/well in 180 μL of Treatment Medium, and 20 μL of in treatment media with either 10% DMSO (Control) or a 10× solution of compound in 10% DMSO was added. Plates were incubated for 6 days at 37° C.
Viral load production was assayed by quantitative PCR of the core sequence. […] The PCR mixture was incubated at 45° C. for 5 minutes, then 95° C. for 10 min, followed by 40 cycles of 10 seconds at 95° C. and 20 seconds at 60° C. Viral load was quantitated against known standards by using ViiA™ 7 Software. Viral load in the supernatant from wells with treated cells were compared against viral load in supernatant from DMSO control wells (≥3 per plate).
On the technique in general: In qPCR the cycle at which signal appears reflects the starting amount.

A further data set deals with AD38 cells. Nature of the data set: Viability of AD38 cells (Promega CellTiter-Glo). Type of data set: cell-based. Conditions: 10 μM compound, 6 days, DMSO controls = 100%. On the procedure:
as §1
At the end of compound treatment period cell viability was assessed using a Promega CellTiter-Glo protocol. All supernatant was removed the previously treated 96-well microtiter plate, and 50 μL Tetracycline-free treatment medium (DMEM/F12 (1:1), 1× Pen/step (cat#: 30-002-CL, Mediatech, Inc), with 2% FBS, Tet-system approved (cat#: 631106, Clontech), and 1% DMSO was added back to each well. Another 50 μL of CellTiter-Glo reagent solution (Promega, G7573) was then added at room temperature and the contents mixed for 2 minutes on an orbital shaker to induce cell lysis. This was followed by incubation at room temperature for 10 minutes to stabilize the luminescent signal. The luminescence was recorded for 0.2 seconds per well on a Tecan multimode platereader (Infinite M1000 pro). The luminescent signal from each well was normalized against that of untreated (DMSO) control wells. All results in Table 3 were reported with percent viability (with controls being 100%).
(In general: In ATP-based viability assays light output follows the ATP content of the culture.)

Take `O=C(NCc1ccc(Cc2ccc(O)cc2)nc1)c1ccc2c(c1)NC(=O)c1ccccc1S2(=O)=O` [Compound 825, N-((6-(4-hydroxybenzyl)pyridin-3-yl)methyl)-11-oxo-10,11-dihydrodibenzo[b,f][1,4]thiazepine-8-carboxamide 5,5-dioxide]: the activity at 10 µM in the data set with HBV is 6.6%. Further, the “AD38 Viability Normalized Result (cmpd/DMSO %) at 10 μM” value with AD38 cells is 90%.
For the compound `COc1ccc(Cc2ccc(CNC(=O)c3ccc4c(c3)NC(=O)c3ccccc3S4(=O)=O)cn2)cc1` [Compound 825-A, N-((6-(4-methoxybenzyl)pyridin-3-yl)methyl)-11-oxo-10, 11-dihydrodibenzo[b,f][1,4]thiazepine-8-carboxamide 5,5-dioxide], the activity at 10 µM in the data set with HBV stood at 6.2%. In addition, the “AD38 Viability Normalized Result (cmpd/DMSO %) at 10 μM” value in the data set with AD38 cells amounted to 58%.
On the same counts, the results for `O=C(NCc1ccc(Cc2ccc(O)cc2)nc1)c1ccc2c(c1)NC(=O)c1ccccc1O2` [Compound 837, N-((6-(4-hydroxybenzyl)pyridin-3-yl)methyl)-11-oxo-10,11-dihydrodibenzo[b,f][1,4]oxazepine-8-carboxamide] are 0.9% and 108%.
For the compound `COc1ccc(Cc2ccc(CNC(=O)c3ccc4c(c3)NC(=O)c3ccccc3O4)cn2)cc1` [Compound 837-A, N-((6-(4-methoxybenzyl)pyridin-3-yl)methyl)-11-oxo-10, 11-dihydrodibenzo[b,f][1, 4]oxazepine-8-carboxamide], the activity at 10 µM with HBV is 5.6%. In the data set on AD38 cells, the “AD38 Viability Normalized Result (cmpd/DMSO %) at 10 μM” value was found to be 105%.
For `O=C(NCc1ccc(-c2ccccc2CO)nc1)c1ccc2c(c1)NC(=O)c1ccccc1S2(=O)=O` [Compound 843], the activity at 10 µM with HBV turned out to be 18.8%. Besides, the “AD38 Viability Normalized Result (cmpd/DMSO %) at 10 μM” value with AD38 cells turned out to be 103%.
For `O=C(NCc1cnc(-c2ccccc2CO)nc1)c1ccc2c(c1)NC(=O)c1ccccc1S2(=O)=O` [Compound 844] the same measures were 10.2% and 103%.
Consider `N#Cc1ccc(-c2ccc(CNC(=O)c3ccc4c(c3)NC(=O)c3ccccc3S4(=O)=O)cn2)cc1` [Compound 867], for which, in the data set on HBV, the activity at 10 µM is 0.6%. In the data set with AD38 cells, the “AD38 Viability Normalized Result (cmpd/DMSO %) at 10 μM” value is listed as 86%.
For `NC(=O)c1ccc(-c2ccc(CNC(=O)c3ccc4c(c3)NC(=O)c3ccccc3S4(=O)=O)cn2)cc1` [Compound 868, N-((6-(4-carbamoylphenyl)pyridin-3-yl)methyl)-11-oxo-10,11-dihydrodibenzo[b,f][1,4]thiazepine-8-carboxamide 5,5-dioxide] the same measures were 27.7% and 103%.
For `N#Cc1ccc(-c2ccc(CNC(=O)c3ccc4c(c3)NC(=O)c3ccccc3S4(=O)=O)nc2)cc1` [Compound 869, N-((5-(4-cyanophenyl)pyridin-2-yl)methyl)-11-oxo-10,11-dihydrodibenzo[b, f][1,4]thiazepine-8-carboxamide 5,5-dioxide] the same measures were 13.3% and 83%.
Turning to `NC(=O)c1ccc(-c2ccc(CNC(=O)c3ccc4c(c3)NC(=O)c3ccccc3S4(=O)=O)nc2)cc1` [Compound 870, N-((5-(4-carbamoylphenyl)pyridin-2-yl)methyl)-11-oxo-10, 11-dihydrodibenzo[b,f][1,4]thiazepine-8-carboxamide 5,5-dioxide], in the data set with HBV, the activity at 10 µM turned out to be 82.7%. Further, the “AD38 Viability Normalized Result (cmpd/DMSO %) at 10 μM” value with AD38 cells amounted to 106%.
On the same counts, the results for `N#Cc1ccc(-c2ncc(CNC(=O)c3ccc4c(c3)NC(=O)c3ccccc3S4(=O)=O)cn2)cc1` [Compound 871, N-((2-(4-cyanophenyl)pyrimidin-5-yl)methyl)-11-oxo-10, 11-dihydrodibenzo[b,f][1,4]thiazepine-8-carboxamide 5,5-dioxide] are 1.3% and 96%.
On the same counts, the results for `NC(=O)c1ccc(-c2ncc(CNC(=O)c3ccc4c(c3)NC(=O)c3ccccc3S4(=O)=O)cn2)cc1` [Compound 872, N-((2-(4-carbamoylphenyl)pyrimidin-5-yl)methyl)-11-oxo-10, 11-dihydrodibenzo[b,f][1,4]thiazepine-8-carboxamide 5,5-dioxide] are 5.2% and 104%.
Turning to `O=C(NCc1ccc(C(F)(F)F)nc1)c1ccc2c(c1)NC(=O)c1ccccc1S2(=O)=O` [Compound 875], the activity at 10 µM in the data set on HBV is 26.1%. For the same compound, in the data set on AD38 cells, the “AD38 Viability Normalized Result (cmpd/DMSO %) at 10 μM” value came to 108%.
For `O=C(NCc1cnc(C(F)(F)F)nc1)c1ccc2c(c1)NC(=O)c1ccccc1S2(=O)=O` [Compound 876] the same measures were 65.5% and 101%.
